Reference: patent US20110172099A1, “Imidazole and Triazole Compounds, Their Use and Agents Containing the Same” (BASF SE, priority 2008, published 2011)

Tested on: Phakopsora pachyrhizi
Assay: Example G2: curative activity against soybean rust caused by Phakopsora pachyrhizi (greenhouse)
Assay type: in vivo
Conditions: 600 ppm; soybean seedlings, curative spray two days after inoculation, assessed after a further 10 days; untreated plants 100% infected

SMILES	infection [%]
CC(C)(C)C(O)C(CCCc1cccc(F)c1F)n1cncn1 (racemic) [I.A25b]	0
CC(Cc1ccc(F)cc1F)CC(C(O)C(C)(C)C)n1cncn1 (mixture of isomers) [I.A30a]	0
CC(CCC(C(O)C(C)(C)C)n1cncn1)c1ccccc1F (mixture of isomers) [I.A36b]	0
CC(Cc1cc(F)ccc1F)CC(C(O)C(C)(C)C)n1cncn1 (mixture of isomers) [I.A26b]	0
CC(Cc1ccc(F)cc1F)CC(C(O)C(C)(C)C)n1cncn1 (stereo not shown) [I.A30b, 7-(2,4-difluorophenyl)-2,2,6-trimethyl-4-[1,2,4]triazol-1-ylheptan-3-ol]	0
CC(Cc1cccc(Cl)c1)CC(C(O)C(C)(C)C)n1cncn1 (mixture of isomers) [I.A39a]	0
CC(C)(C)C(O)C(CCCc1cc(F)ccc1F)n1cncn1 (racemic) [I.A24b]	0

Tested on: Phytophthora infestans
Assay: not given
Assay type: in vivo
Conditions: tomato, protective, after 6 days, untreated control 90

SMILES	Infection (%) at 600 ppm C1 [%]
CC(Cc1ccc(Cl)cc1Cl)CC(C(O)C(C)(C)C)n1cncn1 (stereo not shown) [reference compound]	90
CC(C)(C)C(O)C(CCCc1ccc(Cl)cc1Cl)n1cncn1 (stereo not shown)	7

Tested on: Botrytis cinerea
Assay: C2: gray mold on bell pepper leaves caused by Botrytis cinerea, 1 day protective application (comparison with the prior art)
Assay type: in vivo
Conditions: after 5 days, untreated control 100
Method: The active compounds were prepared separately as a stock solution with 25 mg of active compound, which was made up to 10 ml with a mixture of acetone and/or DMSO and the emulsifier Uniperol® EL (wetting agent with emulsifying and dispersing action based on ethoxylated alkylphenols) in the volume ratio solvent/emulsifier of from 99 to 1. Subsequently, it was made up to 100 ml with water. This stock solution was diluted with the described solvent/emulsifier/water mixture to the active compound concentration indicated below. Alternatively, the active compounds were used as a commercially available ready-to-use solution and diluted with water to the active compound concentration indicated. Bell pepper seedlings were, after 2-3 leaves were well developed, sprayed to run off point with an aqueous suspension having the active compound concentration stated below. The next day, the treated plants were inoculated with a spore suspension of Botrytis cinerea in a 2% biomalt solution. The test plants were then placed in a dark acclimatized chamber at 22 to 24° C. and high atmospheric humidity. After 5 days, the extent of the fungal infection on the leaves could be determined visually in %.

SMILES	Infection (%) at 600 ppm C2 [%]
CC(C)(C)C(O)C(CCCc1ccccc1Cl)n1cncn1 (stereo not shown) [drawing 21]	10
CC(C)(C)C(O)C(CCCc1cccc(Cl)c1)n1cncn1 (stereo not shown)	15
CC(C)(C)C(O)C(CCCc1ccccc1Cl)n1cncn1 (stereo not shown) [drawing 19]	7
CC(C)(C)C(O)C(CCCc1ccc(Cl)cc1)n1cncn1 (stereo not shown) [reference compound]	70
